In patent US20230210857A1, “RESPIRATORY STIMULANT PARENTERAL FORMULATIONS” (Enalare Therapeutics Inc., priority 2021, published 2023):

Legend:
[1] = pH solubility study (100 mM citric acid, shaken overnight at room temperature, HPLC assay); type: physicochemical
Procedure: A pH solubility study was performed to assess the feasibility of formulating the active agent (N-(4,6-Bis-n-propylamino-[1,3,5]triazin-2-yl)-O,N-dimethyl-hydroxylamine) as a simple buffered solution at a reasonable pH for an IV formulation.
Methodology: The active agent (N-(4,6-Bis-n-propyl amino-[1,3,5]triazin-2-yl)-O,N-dimethyl-hydroxylamine) and H2SO4 solution of concentration ˜107 mg/mL in 100 mM citric acid at pH 2.5 was prepared. About 150 μL aliquots of this solution were transferred into 6 separate glass HPLC vials. All the samples, including the solution at pH 2.5, were shaken overnight at room temperature using a gyratory shaker. After shaking, the samples were evaluated visually for the presence of precipitate and were then spin filtered through 0.45 μm syringe tip filters (4 mm diameter) at 3000 rpm for 20 min. The final pH values of the filtrates were measured. The filtrates were then diluted appropriately and analyzed for the active agent (N-(4,6-Bis-n-propylamino-[1,3,5]triazin-2-yl)-O,N-dimethyl-hydroxylamine). H2SO4 concentration using the HPLC assay.
Results: The pH values of the samples prior to and after shaking overnight, appearance as well as concentrations of samples are shown in Table 12.

[2] = Drug substance stability (API in closed Type I glass vials); type: physicochemical
Procedure: Methodology: Approximately 100 mg of the API (Lot 009MSB058) were stored at each of 40° C. and 60° C. in closed Type I glass vials. Samples were analyzed for appearance and percent purity at T0 and after 1 week, 2 weeks and 4 weeks of storage.
Visually, there were no signs of degradation (i.e. discoloration etc.).

[3] = Three-phase pharmacokinetics (PK) study in minipigs, single IV and IM doses; conditions: male, Gottingen, minipig, in vivo; for AUC(0-inf): AUCINF; for AUC(0-t): AUClast; for half-life: T1/2
Procedure: The study consisted of conducting a bioequivalence (BE) study in minipigs. Two formulations of a Compound having Formula (I) (N-(4,6-Bis-n-propylamino-[1,3,5]triazin-2-yl)-O,N-dimethyl-hydroxylamine) were tested in the study as follows:
For IV administration, minipigs (n=3) received a single IV bolus (1-2 minutes) administration of the Compound having Formula (I) (N-(4,6-Bis-n-propylamino-[1,3,5]triazin-2-yl)-O,N-dimethyl-hydroxylamine) via VAP (vascular access port) at the jugular vein. For IM administration, minipigs (n=3) received a single IM administration of Compound having Formula (I) (N-(4,6-Bis-n-propylamino-[1,3,5]triazin-2-yl)-O,N-dimethyl-hydroxylamine) via the lateral neck muscle (behind the ear). The animals were dosed before noon on dosing days. The routes allowed for the determination of pharmacokinetics of Compound having Formula (I) (N-(4,6-Bis-n-propylamino-[1,3,5]triazin-2-yl)-O,N-dimethyl-hydroxylamine) from IV and IM administration.
A PK study was conducted in male Gottingen minipigs (n=3), which were administered in a single IV and subsequent IM doses using the dosing scheme outlined in Table 25. There was a minimum of 3 day washout period between dose events.
The mean dose for IV dose Group 1 was 4.79+/−0.012 mg/kg. The mean dose for IM dose Group 2 was 4.82+/−0.036 mg/kg. The mean dose for IM dose Group 3 was 4.79+/−0.033 mg/kg. All through groups nominal doses were 4.8 mg/kg. These does were based on the nominal concentrations of the Compound having Formula (I) (N-(4,6-Bis-n-propylamino-[1,3,5]triazin-2-yl)-O,N-dimethyl-hydroxylamine) in the dose formulations (purity, water, and salt content corrected).
For IV administration, minipigs (n=3) received a single IV bolus (1-2 minutes) administration of Compound having Formula (I) (N-(4,6-Bis-n-propylamino-[1,3,5]triazin-2-yl)-O,N-dimethyl-hydroxylamine) via a Vascular access port (VAP) in the jugular vein. For IM administration, minipigs (n=3) received a single IM administration of each IM formulation via the lateral neck muscle (behind the ear). For each dose event, blood samples were collected at 8 time points: 0.083, 0.167, 0.25, 0.5, 1, 2, 4 and 24 hours post dose. General observations were conducted twice-daily for any treatment-related effects/toxicity and/or tolerability. Table 26 includes the Plasma Concentration Descriptive Statistics of Compound having Formula (I) (N-(4,6-Bis-n-propylamino-[1,3,5]triazin-2-yl)-O,N-dimethyl-hydroxylamine). Table 27 illustrates the plasma concentration pharmacokinetic parameters of Compound having Formula (I) (N-(4,6-Bis-n-propylamino-[1,3,5]triazin-2-yl)-O,N-dimethyl-hydroxylamine).
The plasma concentration descriptive statistics of the compound having Formula (I) (N-(4,6-Bis-n-propyl amino-[1,3,5]triazin-2-yl)-O,N-dimethyl-hydroxyl amine) are presented in Table 28.
The T1/2 values were 3.0 hours for IV Group 1 and 3.2 hours and 2.7 hours for IM Groups 2 and 3, respectively.
For each dose level, Cmax was higher for IV dosing than for IM dosing whereas AUClast was higher for IM dosing than for IV dosing.
The IV and IM bioavailability of a Compound having Formula (I) (N-(4,6-Bis-n-propylamino-[1,3,5]triazin-2-yl)-O,N-dimethyl-hydroxylamine) is presented in Table 30.
The IV formulation single injection yielded higher Cmax and shorter time to Cmax(Tmax). […] From the present pharmacokinetic study, it is believed that IM Formulation 1 is a simple formulation with high solubility and shorter Tmax, while IM Formulation 2 has higher absorption in both rats and minipig.

[4] = iv, 4.8 mg/kg, Mean plasma concentration

- Active Agent · H2SO4 Concentration ([1]; pH 2.42): 104.1 mg/mL
- Active Agent · H2SO4 Concentration ([1]; pH 3): 99.8 mg/mL
- Active Agent · H2SO4 Concentration ([1]; pH 3.51): 101.6 mg/mL
- Appearance after Shaking ([1]; target pH 2.5): Clear solution
- Appearance after Shaking ([1]; target pH 3.0): Clear solution
- Appearance after Shaking ([1]; target pH 3.5): Clear solution
- Appearance after Shaking ([1]; target pH 4.0): Precipitate
- Appearance after Shaking ([1]; target pH 4.5): Precipitate
- Appearance after Shaking ([1]; target pH 5.0): Precipitate
- Appearance after Shaking ([1]; target pH 5.5): Precipitate
- drug substance stability (in words) ([2]; 4 weeks even at 60° C.): quite stable
- Appearance ([2]; 40° C., T = 1 week): White
- Purity ([2]; 40° C., T = 1 week): 99.92%
- Related Substances (Total) ([2]; 40° C., T = 1 week): Total 0.08
- Appearance ([2]; 40° C., T = 2 week): White
- Purity ([2]; 40° C., T = 2 week): 99.90%
- Related Substances (Total) ([2]; 40° C., T = 2 week): Total 0.10
- Appearance ([2]; 40° C., T = 4 week): White
- Purity ([2]; 40° C., T = 4 week): 100.00%
- Appearance ([2]; 60° C., T = 1 week): powder
- Purity ([2]; 60° C., T = 1 week): 99.76%
- Related Substances (Total) ([2]; 60° C., T = 1 week): Total 0.24
- Appearance ([2]; 60° C., T = 2 week): powder
- Purity ([2]; 60° C., T = 2 week): 100.00%
- Appearance ([2]; 60° C., T = 4 week): powder
- Purity ([2]; 60° C., T = 4 week): 100.00%
- Appearance ([2]; T = 0): White
- Purity ([2]; T = 0): 100.00%
- bioavailability [3]: 117.2%
- bioavailability ([3]; Bioavailability): 113%
- AUClast ([3]; im, 4.8 mg/kg): 2711 ng·h/mL
- T1/2 ([3]; im, 4.8 mg/kg): 2.7 h
- AUC(0-inf) ([3]; im, 4.8 mg/kg): 2720 ng·h/mL
- AUC(0-t) ([3]; im, 4.8 mg/kg): 2620 ng·h/mL
- Cmax ([3]; im, 4.8 mg/kg): 466 ng/mL
- half-life ([3]; im, 4.8 mg/kg): 3.2 h
- Tmax ([3]; im, 4.8 mg/kg): 0.5 h
- AUC(0-inf) ([3]; iv, 4.8 mg/kg): 2320 ng·h/mL
- AUC(0-t) ([3]; iv, 4.8 mg/kg): 2310 ng·h/mL
- bioavailability ([3]; iv, 4.8 mg/kg, Bioavailability): 100%
- Cmax ([3]; iv, 4.8 mg/kg): 2820 ng/mL
- concentration at 0.083 hr [3, 4]: 2820 ng/mL
- concentration at 0.167 hr [3, 4]: 2010 ng/mL
- concentration at 0.25 hr [3, 4]: 1500 ng/mL
- concentration at 0.5 hr [3, 4]: 1020 ng/mL
- concentration at 1 hr [3, 4]: 519 ng/mL
- concentration at 2 hr [3, 4]: 186 ng/mL
- concentration at 4 hr [3, 4]: 40 ng/mL
- concentration at 24 hr [3, 4]: 0.8 ng/mL
- half-life ([3]; iv, 4.8 mg/kg): 3 h
- Tmax ([3]; iv, 4.8 mg/kg): 0.083 h
Compound: CCCNc1nc(NCCC)nc(N(C)OC)n1 [active agent, N-(4,6-Bis-n-propylamino-[1,3,5]triazin-2-yl)-O,N-dimethyl-hydroxylamine]
